Data: ChEMBL document CHEMBL3217458, “Discovery of a novel benzopyranyl compound as a potent in vitro and in vivo osteogenic agent” (Medchemcomm, 2011)
Activity calls are given as the source filed them. No cut-off for these calls is given here.

Columns and labels:
[1] = tested on: C3H 10T1/2; test: Induction of osteogenesis in mouse C3H10T1/2 cells assessed as increase in alkaline phosphatase activity at 2 uM after 72 hrs by ALP assay; assay type: functional
[2] = tested on: C3H 10T1/2; test: Induction of osteogenesis in mouse C3H10T1/2 cells assessed as increase in alkaline phosphatase activity after 72 hrs by ALP assay; assay type: functional, cell-based
[3] = tested on: L6; test: Cytotoxicity against rat L6 cells at 0.1 to 25 uM after 24 hrs by WST-1 assay; assay type: cell-based; conditions: l6, 24 h
[4] = Cytotoxicity against human CaSki cells at 0.1 to 25 uM after 24 hrs by WST-1 assay; assay type: cell-based; conditions: ca-ski
[5] = tested on: C2C12; test: Cytotoxicity against mouse C2C12 cells at 0.1 to 25 uM after 24 hrs by WST-1 assay; assay type: cell-based; conditions: c2c12, 24 h
[6] = tested on: C3H 10T1/2; test: Activation of proto-oncogene protein Wnt/beta-catenin signaling (unknown origin) transfected in mouse C3H10T1/2 cells assessed as increase in transcriptional activity at 2 uM after 48 hrs by TOPflash luciferase reporter gene assay; assay type: cell-based; conditions: Homo sapiens
[7] = tested on: DU-145; test: Cytotoxicity against human DU145 cells at 0.1 to 25 uM after 24 hrs by WST-1 assay; assay type: cell-based; conditions: du-145, 24 h
[8] = tested on: Mus musculus; test: Induction of osteogenesis in ovariectomized C57BL/6 mouse model assessed as reduction in trabecular space at 10 mg/kg/day, po administered 5 days per week for 4 weeks by micro-CT analysis relative to vehicle-treated control; assay type: functional, organism-based; conditions: Trabecula
[9] = tested on: PC-3; test: Cytotoxicity against human PC3 cells at 0.1 to 25 uM after 24 hrs by WST-1 assay; assay type: cell-based; conditions: pc-3, 24 h
[10] = tested on: C3H 10T1/2; test: Induction of osteogenesis in mouse C3H10T1/2 cells assessed as calcium deposition at 4 uM by Alizarin Red S staining-based assay; assay type: functional, cell-based
[11] = tested on: C3H 10T1/2; test: Induction of osteogenesis in mouse C3H10T1/2 cells using BCIP as substrate assessed as increase in alkaline phosphatase activity at 0.25 to 4 uM after 72 hrs by nitroblue tetrazolium chloride staining-based assay; assay type: functional, cell-based
[12] = tested on: Mus musculus; test: Induction of osteogenesis in ovariectomized C57BL/6 mouse model assessed as increase in […] at 5 to 10 mg/kg/day, po administered 5 days per week for 4 weeks by dual-energy X-ray absorptiometry relative to vehicle-treated control; assay type: functional
[13] = tested on: HeLa; test: Cytotoxicity against human HeLa cells at 0.1 to 25 uM after 24 hrs by WST-1 assay; assay type: cell-based
[14] = tested on: Mus musculus; test: Induction of osteogenesis in ovariectomized C57BL/6 mouse model assessed as increase in bone volume at 10 mg/kg/day, po administered 5 days per week for 4 weeks by micro-CT analysis relative to vehicle-treated control; assay type: functional, organism-based
[15] = Cytotoxicity against mouse 3T3L1 cells at 0.1 to 25 uM after 24 hrs by WST-1 assay; assay type: cell-based; conditions: 3t3-l1, 24 h
[16] = tested on: HepG2; test: Cytotoxicity against human HepG2 cells at 0.1 to 25 uM after 24 hrs by WST-1 assay; assay type: cell-based; conditions: hepg2, 24 h
[17] = tested on: Mus musculus; test: Induction of osteogenesis in ovariectomized C57BL/6 mouse model assessed as increase in trabecular number at 10 mg/kg/day, po administered 5 days per week for 4 weeks by micro-CT analysis relative to vehicle-treated control; assay type: functional, organism-based; conditions: Trabecula

With COc1ccc2c(c1O)OC(C)(C)C=C2c1cccc([N+](=O)[O-])c1 the “fold change (FC)” value [1] was 1.5.

In the case of CCOC(=O)CCC1(C)C=C(c2cccc([N+](=O)[O-])c2)c2ccc(O)cc2O1 (stereo unspecified), the “fold change (FC)” value [1] is reported as 1.4.

For Cc1n[nH]c(C)c1C1CC(C)(C)Oc2cc(O)ccc21 (stereo unspecified), the Activity [2] was “inactive”.

With CC1(C)C=C(c2cccc([N+](=O)[O-])c2)c2ccc(O)cc2O1 the Activity [3] was “Non-toxic”, the Activity [4] was “Non-toxic” and the Activity [2] was “Dose-dependent effect”. For the same compound, the Activity [5] was “Non-toxic”, the Activity [6] was “Active” and the Activity [7] was “Non-toxic”. For the same compound, the Activity [8] was “Active”, the Activity [9] was “Non-toxic” and the Activity [10] was “Active”. For the same compound, the Activity [11] was “Dose-dependent effect”, the Activity [12] was 37% and the “fold change (FC)” value [1] was 6.8. For the same compound, the Activity [13] was “Non-toxic”, the Activity [14] was “Active” and the Activity [15] was “Non-toxic”. The Activity [16] was “Non-toxic” and the Activity [17] was “Active”.

With CC1(C)CC(c2ccc([N+](=O)[O-])cc2)c2cc(-c3cccc(O)c3)ccc2O1 (stereo unspecified) the Activity [2] was “inactive”.

In the case of CC1(C)C=C(c2ccccc2[N+](=O)[O-])c2ccc(O)cc2O1, the “fold change (FC)” value [1] is reported as 1.2.

For CN(C)c1ccc(C2=CC(C)(C)Oc3cc(O)ccc32)cc1, the “fold change (FC)” value [1] was 0.7.

For CC(=O)c1cccc(C2=CC(C)(C)Oc3cc(O)ccc32)c1, the “fold change (FC)” value [1] was 1.9.

With CC1(C)C=C(c2cccc(N)c2)c2ccc(O)cc2O1 the “fold change (FC)” value [1] was 2.5.

In the case of CC1(C)C=C(c2ccc([N+](=O)[O-])cc2)c2ccc(O)cc2O1, the “fold change (FC)” value [1] is reported as 3.1.

With CN(C)c1cccc(C2=CC(C)(C)Oc3cc(O)ccc32)c1 the “fold change (FC)” value [1] was 1.6.

In the case of CC1(C)CC(c2ccoc2)c2ccc(O)cc2O1 (stereo unspecified), the Activity [2] is reported as “inactive”.

With CC1(C)CC(c2ccc([N+](=O)[O-])cc2)c2cc(Cl)cc(-c3cccc(O)c3)c2O1 (stereo unspecified) the Activity [2] was “inactive”.

For CC1(C)C=C(c2ccc(N)cc2)c2ccc(O)cc2O1, the “fold change (FC)” value [1] was 3.9.

For CC1(C)CC(c2cccnc2)c2ccc(O)cc2O1 (stereo unspecified), the Activity [2] was “inactive”.

In the case of CC1(C)C=C(c2cc(Cl)cc(Cl)c2)c2ccc(O)cc2O1, the “fold change (FC)” value [1] is reported as 1.5.

In the case of CC1(C)CC(c2cccs2)c2ccc(O)cc2O1 (stereo unspecified), the Activity [2] is reported as “inactive”.

For O=[N+]([O-])c1cccc(C2=CC3(CCCC3)Oc3cc(O)ccc32)c1, the “fold change (FC)” value [1] was 0.6.

With CC1(C)C=C(c2cccc(O)c2)c2ccc(O)cc2O1 the “fold change (FC)” value [1] was 1.4.

For CC1(C)CC(c2ccccc2)c2ccc(O)cc2O1 (stereo unspecified), the Activity [2] was “inactive”.
